# Measurements as given in patent publication US20240343699A1, “DERIVATIVES OF SUBSTITUTED MORPHOLINES AND USES THEREOF” (Supernus Pharmaceuticals, Inc., priority 2023, published 2024).
# Read-outs that look alike come from different tables or passages of the source.
# How the values were obtained:
# [1] = Stability in fluid matrices SGF, SIF and PBS; assay type: physicochemical; conditions: 37° C.
# Method: Simulated Gastric Fluid (SGF) was prepared with 34.2 mM NaCl, 80 μM sodium taurocholate, 20 μM of L-alpha phosphatidylcholine/lecithin, and 0.1 mg/mL of Pepsin. 1 M HCl was added dropwise to adjust the pH to 1.96. Simulated Intestinal Fluid (SIF) was prepared with sodium phosphate monobasic, 105.9 mM NaCl, […] sodium taurocholate, and […] of L-alpha phosphatidylcholine/lecithin. 1 N NaOH was added dropwise to adjust the pH to 5.98. Phosphate buffered saline (PBS) at pH 6.0 was made by titrating PBS at pH 7.4 with 1 M HCl.
# (§1) Stability of Test Articles at Different pH Values. 10 mM stock solutions of COMPOUND A were prepared in DMSO. From this stock solution, a single concentration in a 10 μL aliquot was added to three fluid matrices: SGF at pH 2.0 (gastric), SIF at pH 6.0 (upper intestine), and PBS at 7.4 (systemic). The final volume was 1 mL (0.1 mM). The preparations were then incubated at 37° C. and samples were collected at 0, 15, 30, 60, and 120 min for analysis of parent material by LC/MS/MS. The collected sample was quenched in acetonitrile/0.1% formic acid mixture. Red Blood Cell (RBC): Human and rat blood were centrifuged to separate out red blood cells at […] for 15 min. The upper plasma level was aspirated with a micropipette and placed in a bleach solution for disposal. The RBC pellet was resuspended in sterile isotonic saline. The pellet was gently resuspended by rocking the tube. The sample was then centrifuged again to collect the RBC pellet and then resuspended and washed one more time following the same procedure. A total of three was done. Following the last wash and centrifugation, the RBCs were resuspended with PBS; and mixed by inversion. Aliquots of the resuspended and washed RBCs were then placed into 4 reaction tubes. These tubes were centrifuged to collect the RBCs. The fluid level was marked on each tube, then the supernatant was aspirated off and the cells resuspended with room temperature PBS pH 7.4 to the original mark. An aliquot of the RBC suspension was added to four sterile tubes containing PBS pH 7.4 at room temperature.
# [2] = Stability in human whole blood, red blood cells and plasma (with/without protease inhibitors, pH 6.0); assay type: in vitro ADME
# Method: as §1
# (§2) Stability in Human and Rat Red Blood cells and Hemolysis. […] After centrifugation, 70 μL of supernatant (without disturbing the pellet) was transferred to a clean and clear polystyrene flat bottomed 96-well plate and the absorbance of the sample at a single wavelength was measured using a Bio Tech Synergy Hl Plate Reader at a wavelength of 410 nm. […] Stability was measured by measuring loss of parent compound using LC/MS/MS.
# [3] = Stability in rat whole blood, red blood cells and plasma; assay type: in vitro ADME; conditions: 0.5 mM, 0-120 min
# Method: (§3) Stability of Test Articles at Different pH Values. 10 mM stock solutions of COMPOUND A were prepared in DMSO. From this stock solution, a single concentration in a 10 μL aliquot was added to three fluid matrices: SGF at pH 2.0 (gastric), SIF at pH 6.0 (upper intestine), and PBS at 7.4 (systemic). The final volume was 1 mL (0.1 mM). The preparations were then incubated at 37° C. and samples were collected at 0, 15, 30, 60, and 120 min for analysis of parent material by LC/MS/MS. The collected sample was quenched in acetonitrile/0.1% formic acid mixture. Red Blood Cell (RBC): Human and rat blood were centrifuged to separate out red blood cells at […] for 15 min. The upper plasma level was aspirated with a micropipette and placed in a bleach solution for disposal. The RBC pellet was resuspended in sterile isotonic saline. The pellet was gently resuspended by rocking the tube. […]
# as §2
# [4] = tested on: human red blood cells; experiment: Hemolysis in human blood; assay type: cell-based
# Method: as §3, §2
# [5] = Stability in rat gut microbiota (fecal matter); assay type: in vitro ADME; conditions: pH 6 and pH 7.4, 0.5 mM
# Method: Stability in Rat and Human Gut Microbiota. Rat fecal material was obtained and weighed. One capsule of the raw probiotics was crushed and weighed prior to use. The weighed samples were then solubilized in PBS at pH 6.0 and 7.4 to extract microorganisms. The samples were centrifuged at 18,000×g for 10 min to remove particulates and the supernatant was used to evaluate test article stability. An aliquot (50 μL) of the COMPOUND A stock solution was added to the fecal extract (final concentration 0.5 mM) and allowed to incubate at 37° C. Aliquots were collected at 0, 15, 30, 60, and 120 min and analyzed by LC/MS/MS to determine stability of the parent molecule. The collected sample was quenched in acetonitrile/0.1% formic acid mixture.
# [6] = tested on: recognition memory; experiment: Spontaneous novel object recognition (NOR), 48 hr retention interval; assay type: in vivo, male Wistar rats; conditions: 48 hr delay
# [7] = tested on: sleep/wake and cataplexy; assay type: in vivo, male DTA mice
# [8] = tested on: recognition memory; experiment: Novel object recognition, scopolamine-impairment model, 3 hr retention interval
# [9] = COMPOUND A 30, 90 and 120 mg/kg, first 6 h
# [10] = COMPOUND A 90 and 120 mg/kg, ZT19-ZT24
# [11] = COMPOUND A 90 and 120 mg/kg, first 6 h
# [12] = all concentrations of COMPOUND A, first 6 h
compound,measurement,setting,value
CCOc1ccccc1OC[C@@H]1CN(C(=O)OC(C)OC(=O)[C@@H](N)C(C)C)CCO1 (stereo partly shown) [COMPOUND A],stability in PBS (amount of parent compound),"[1]; PBS pH 7.4, 0.1 mM",time-dependent decrease in the amount of parent compound
same,stability in SGF (LC/MS/MS peak area of parent),"[1]; SGF pH 2.0, 0.1 mM, 0-120 min",time-dependent decrease in the LC/MS/MS peak area until 20 min
same,amount of parent compound in SIF,"[1]; SIF pH 6.0, 0.1 mM, all time points",100%
same,stability in human plasma at pH 6.0,[2]; 0-30 min,slower degradation compared to the other matrices
same,stability in human plasma with protease inhibitor cocktail,[2]; 0-30 min,time-dependent decrease in the amount of parent compound present
same,stability in human red blood cells and whole blood,"[2]; 0.5 mM, 0-120 min",time-dependent decrease in the amount of parent compound present
same,"stability in rat red blood cells, plasma and whole blood",[3],time-dependent decrease in the amount of parent compound present
same,hemolysis (% RBC lysis),"[4]; human blood, 25, 50, 100 μM, 1 hr",no detectable hemolysis
same,EC50 (% RBC lysis),"[4]; human blood, 60 min exposure",outside the concentration range tested
same,stability in rat fecal matter,[5],time-dependent decrease in the amount of parent compound
same,preference for the novel object (exploration times),[6]; COMPOUND A 15 mg/kg p.o.,non-significant trend toward a preference for the novel object
same,preference for the novel object (exploration times),"[6]; COMPOUND A 30, 60, and 90 mg/kg p.o.",significant (p<0.05) preference for the novel object
same,d2 ratios vs vehicle-control,[6]; COMPOUND A 60 and 90 mg/kg p.o.,significant difference (p<0.05) from the vehicle-control response
same,"W and NREM (hourly, cumulative and total time)","[7]; COMPOUND A 30 mg/kg, ZT19-ZT24",W increased overall (treatment effect) and NREM decreased overall
same,C levels during ZT24,[7]; COMPOUND A 120 mg/kg,approximately half of vehicle levels
same,"NREM (hourly, cumulative and total time)","[7]; COMPOUND A 120 mg/kg, ZT19-ZT24",NREM increased overall
same,latency to REM,"[7]; COMPOUND A 10, 30, 90, 120 mg/kg p.o., first 6 h of dark period",increased the latency to REM
same,number of C bouts,[7]; [9],the number of C bouts decreased overall
same,total NREM time,[7]; [9],total NREM time increased
same,total time in C (cataplexy),[7]; [9],total time in C decreased
same,REM and C during the 6-h recording,[7]; COMPOUND A 90 and 120 mg/kg,practically eliminated
same,REM:NR ratios,[7]; [10],REM:NR ratios decreased
same,latency to REM,[7]; [10],The latency to REM increased
same,LMA,[7]; [11],LMA decreased overall
same,Total W time,[7]; [11],Total W time decreased
same,C (cataplexy),"[7]; COMPOUND A two highest concentrations, ZT19-ZT24",significantly decreased
same,"NREM alpha, beta and high gamma EEG power",[7]; [12],decreased overall
same,total time in REM,[7]; [12],decreased total time in REM
same,REM:NR ratios,"[7]; all test conditions, first 6 h",REM:NR ratios decreased
same,d2 ratios: effect on scopolamine impairment,[8]; COMPOUND A 90 mg/kg p.o. + scopolamine,significantly attenuated this effect of scopolamine
same,preference for the novel object (exploration times),"[8]; COMPOUND A 30, 60, and 90 mg/kg p.o. + scopolamine, 3 hr delay",significant (p<0.05) preference for the novel object
